Converted amounts (≈) assume the structure as drawn. “And” between values parts separate entries of the source, which are not always exact repeats. Identical values can stand only once. “Also recorded” adds a separate entry of the source.
Assays:
[1] = tested on: S. aureus Newman; experiment: Adhesion of S. aureus Newman to GST-L2v loricrin; type: cell-based, Staphylococcus aureus; details: for activity in adhesion of S. aureus Newman to L2v loricrin: screened at 80 μM (Fig. 4D)
Description: FIG 4 Allantodapsone inhibits S. aureus adhesion to loricrin and cytokeratin 10. Dose-response curve for adhesion of S. aureus Newman to GST-L2v loricrin (A) and CK10 (C). (B) Inhibition of recombinant ClfB N2N3 binding to immobilized GST-L2v loricrin by allantodapsone. (D) Inhibition of S. aureus Newman adhesion to GST-L2v loricrin by allantodapsone derivatives. Purified GST-L2v or CK10 were used to coat plates at 4°C overnight. Wells were washed with PBS and blocked with 1% BSA. Washed bacteria (OD600 of 1) were mixed with allantodapsone or vehicle control before being added to the wells and incubated for 2 h at 37°C. Adherent cells were washed, fixed, and stained with crystal violet, and wells further washed. The dye was dissolved in acetic acid, and the absorbance measured at 570 nm. GST-L2v was used at 20 μM in A and D. CK10 was used at 10 nM. Test compounds were incubated with bacteria at 80 μM and normalized to the DMSO vehicle control in D. For data presented in B, recombinant ClfB was incubated with allantodapsone (100 μM) or DMSO (1%) for 30 min prior to being added to wells coated with recombinant GST-L2v loricrin. Bound ClfB was detected using peroxidase-conjugated anti-His monoclonal antibody in an ELISA. The graphs shown are representative of three independent experiments. Statistics were carried out using one-way ANOVA followed by the Dunnett’s posttest using GraphPad Prism version 9.0.
(§1) Adhesion assays were carried out according to Hartford et al. ([37]). Briefly, plates were coated with 10 μg/mL fibrinogen (Calbiochem, Darmstadt, Germany) or 20 μg/mL fibronectin (Sigma-Aldrich, Ireland) for 2 h at 37°C or for 16 h at 4°C. Plates were blocked with 1% BSA at 37°C for 1 h and washed 3 times in PBS. Washed bacteria were incubated at 37°C for 2 h. Adherent bacteria were washed three times in PBS and fixed in 5–9% formaldehyde at room temperature for 30 min. Wells were washed three times in PBS and stained using 5% crystal violet for 20 min. Wells were washed three times in PBS, and the crystal violet solubilized using 5% acetic acid. Plates were read at 570 nm on a Wallac Victor2, (Shelton, CT, USA). The minimum adhesion inhibitory concentration (MAIC) was determined as the concentration inhibiting greater than 90% bacterial adhesion.

[2] = tested on: S. aureus Newman; experiment: Adhesion of S. aureus Newman to immobilized fibrinogen (crystal violet); type: cell-based, Staphylococcus aureus; details: for inhibition of adhesion to fibrinogen: S. aureus Newman, stationary and exponential phase, compounds screened at 70 μM (Fig. 2); for activity of individual fragments of allantodapsone: assay not specified
Description: FIG 1 Allantodapsone inhibits S. aureus Newman adhesion to fibrinogen. Dose response curves for S. aureus Newman (A), L. lactis ClfA (B), and L. lactis ClfB (C) adhesion to fibrinogen. Fibrinogen was used to coat plates at 4°C overnight at 10 μg/mL. Wells were washed with PBS and blocked with 1% BSA. Washed bacteria (OD600 of 1) were mixed with the relevant concentration of allantodapsone or vehicle control (DMSO) for 5 min, and added to the wells, incubating for 2 h at 37°C. Adherent cells were washed, fixed, and stained with crystal violet, and wells further washed. The dye was dissolved in acetic acid and the absorbance measured at 570 nm. IC50 values were generated using GraphPad Prism 9.0 GraphPad software, San Diego, CA. Data are representative of three experiments with error presented as SEM.
(§2) FIG 2 Allantodapsone inhibits S. aureus adhesion to fibrinogen. (A) S. aureus Newman stationary phase and (B) exponential phase. (C) S. aureus SH1000 stationary phase and (D) exponential phase bacteria. Fibrinogen was used to coat plates at 4°C overnight at 10 μg/mL. Wells were washed with PBS and blocked with 1% BSA. Washed bacteria (OD600 of 1) were mixed with the relevant concentration of allantodapsone or vehicle control for 5 min, and added to the wells, incubating for 2 h at 37°C. Adherent cells were washed, fixed, and stained with crystal violet, and wells further washed. The dye was dissolved in acetic acid and the absorbance measured at 570 nm. Compounds were screened at a concentration of 70 μM and compared to their vehicle control. Statistical analysis was carried out using repeated measures ANOVA followed by multiple comparisons Dunnett’s tests using GraphPad PRISM. **, P ≤ 0.01; ***, P ≤ 0.001; ****, P ≤ 0.0001 (n = 3).
as §1
(§3) Compounds were added to the bacterial suspension prior to addition to the wells. In each experiment, vehicle controls were prepared using the same volume of vehicle for the matching test compound.

[3] = tested on: S. aureus SH1000; experiment: Adhesion of S. aureus SH1000 to immobilized fibrinogen (crystal violet); type: cell-based, Staphylococcus aureus; details: S. aureus SH1000, stationary and exponential phase; compounds screened at 70 μM (Fig. 2)
Description: as §2, §1, §3

[4] = tested on: S. aureus Newman; experiment: Antimicrobial assay (bacterial growth in BHI broth); type: cell-based, Staphylococcus aureus; details: for MIC90: Staphylococcus aureus, S. aureus Newman, overnight growth in BHI broth; for inhibition of bacterial growth (words): overnight in BHI broth, allantodapsone up to 100 μM, versus vehicle control
Description: S. aureus was grown in BHI broth shaking overnight at 37°C in the presence of a range of concentrations of allantodapsone, dapsone, or ampicillin as control. Absorbance was measured the following day at 570 nm. Data have been normalized to the relevant vehicle control (1% DMSO for allantodapsone and dapsone and water for ampicillin). […] Error bars represent SEM.
S. aureus was grown overnight in BHI broth at 37°C in shaking incubator. Wells were inoculated with 10 μL of overnight culture into 90 μL of broth containing the test compounds or controls. A growth control containing no agents was used (positive control), a sterility control of broth alone was included, and vehicle controls were included for each test compound. Plates were incubated overnight at 37°C and absorbance measured at 570 nm the following day using a Wallac Victor2, (Shelton, CT, USA).

[5] = tested on: MSSA isolates; details: cited from earlier work

N=C(N)Nc1ccc(Oc2cccc(NC(=N)N)c2)cc1 [Compound 10]
activity in adhesion of S. aureus Newman to L2v loricrin [1]: loss of activity

N=C(N)Nc1ccc(Oc2cccc(NC(=O)c3ccc(Cl)c(C(F)(F)F)c3)c2)cc1 [Compound 11]
activity in adhesion of S. aureus Newman to L2v loricrin [1]: demonstrated activity; also recorded: maintained some activity | adhesion to L2v loricrin, normalized to DMSO vehicle control ([1]; test compound at 80 μM, S. aureus Newman): 61.3% ± 7

O=C1NC(=O)C(=O)C(=O)N1 [alloxan]
inhibition of adhesion to fibrinogen [2]: Neither dapsone nor alloxan had any inhibitory activity; also recorded: did not have any inhibitory effect | activity of individual fragments of allantodapsone [2]: did not show any activity | inhibition of adhesion to fibrinogen [3]: Neither dapsone nor alloxan had any inhibitory activity

CC1(C)S[C@@H]2[C@H](NC(=O)[C@H](N)c3ccccc3)C(=O)N2[C@H]1C(=O)O [ampicillin]
MIC90 [4]: 0.03 µM and 0.01 µg/mL | inhibition of bacterial growth (words) [4]: pronounced inhibitory effect on growth | MIC90 reported for S. aureus isolates ([5]; microdilution method in MSSA isolates): 0.015 to 4 mg/L

Nc1ccc(S(=O)(=O)c2ccc(N)cc2)cc1 [dapsone]
inhibition of adhesion to fibrinogen [2]: Neither dapsone nor alloxan had any inhibitory activity; also recorded: did not have any inhibitory effect | activity of individual fragments of allantodapsone [2]: did not show any activity | inhibition of adhesion to fibrinogen [3]: Neither dapsone nor alloxan had any inhibitory activity | MIC90 [4]: 0.3 µM and 0.1 µg/mL | inhibition of bacterial growth (words) [4]: inhibited growth | MIC90 previously determined in MSSA strains ([5]; MSSA strains): 128 mg/L (≈ 515 µM) | range printed in parentheses after MIC90 in MSSA strains ([5]; MSSA strains): 32 to 256 mg/L

O=C1NC(=O)C(=NO)C(=O)N1 [violuric acid]
activity of individual fragments of allantodapsone [2]: did not show any activity
